# Results from patent publication US9187411B2, “Leukotriene B4 antagonist compound” (Eli Lilly and Company, priority 2012, dated 2015).
# pIC50: −log10 of the molar value.
# Assays:
# [1] = tested on: LTB4-induced CD11b expression in neutrophils; test: CD11b assay, human whole blood; format: cell-based; conditions: Neutrophil, 10 nM LTB4
# Method: (§1) EDTA anti-coagulated blood is collected from human donors or mice as before. For in vitro experiments, 8 or 10 point dose response curves of test compounds are assayed at final concentrations of 78 nM-10 μM or 20 nM-10 μM respectively. ½ serial dilutions of compound at 1000× of final assayed concentration are prepared in DMSO. Compound is then diluted to 10× in DPBS (DMSO concentration is now 1%). 10 μL of compound dilutions (at 10× in DPBS) or 1% DMSO in DPBS are added to wells of a 96 deep well plate. 90 μL whole blood is added and incubated 20 min at room temperature. 11 μL of 10×LTB4 (final concentration 25 nM for mouse or 10 nM human) is added and incubated at 37° C. for 30 min. The reaction is stopped by incubating the plate on ice for 5 min. The cells are stained with 10 μL anti-mouse or anti-human CD11b-PE (BD Biosciences diluted 1:20 for mouse and undiluted for human) and incubated on ice for 30 min in the dark (for mouse experiments, 10 μL anti-mouse LY6G-FITC antibody (BD Pharmingen) diluted 1:25 is added for the final 10 min) Red blood cells (RBCs) are lysed by adding 1.5 mL of 1×BD FACSlyse (BD Biosciences) and incubating for 10 min at room temperature in the dark. […] Data are analyzed with WinList software (Verity Software House) to determine mean and median fluorescent intensity values for CD11b-PE from neutrophil population.
# [2] = tested on: LTB4-induced CD11b expression in neutrophils; test: CD11b assay, mouse whole blood; format: cell-based; conditions: Neutrophil, 25 nM LTB4
# Method: as §1
# [3] = tested on: CaCl2-induced abdominal aortic aneurysm; test: CaCl2-induced AAA animal efficacy model, rats; format: in vivo, Sprague-Dawley rats; conditions: 28 days, aortic lumenal perimeter
# From the text: A targeted application of a calcium chloride solution to the mouse aorta induces vessel dilatation Chiou et al. J. Surg. Res. (2001), 99: 371-376; Lomgo et al. J. Clin. Invest. (2002), 110: 625-632. Two weeks after treatment, the vessel dilatation compared to the original vessel diameter becomes statistically significant, with up to 75% increase of aortic lumenal perimeter after 4 weeks. Calcium precipitates have been localized primarily within the elastic network of the media. Disruption of this structure by the calcium-elastic tissue complex weakens the vessel wall, contributing to aneurysm formation. This injury also serves as a proinflammatory stimulus, recruiting neutrophils, lymphocytes, monocytes, and mast cells.
# Rats: Sprague-Dawley rats, 7-8 weeks of age, are acquired from Harlan, Indianapolis, Ind., USA
# Aneurysm Induction Model: All procedures are performed in accordance with Eli Lilly and Company Institutional Animal Care and Use guidelines. Upon their arrival, animals have a one week acclimation period during which they have ad libitum access to standard rodent chow (Purina #2014) and house water. Following the acclimation period, animals are anesthetized with isoflurane, and a laparotomy is performed for the CaCl2-stimulated induction of the abdominal aortic aneurysm (AAA). […] Once isolated, the region of interest (ROI) of the abdominal aorta is wrapped with sterile, cotton gauze presoaked in a 0.25 M CaCl2 solution. In sham control animals, 0.9% saline is substituted for CaCl2. After 7 min, the gauze is removed and a second CaCl2 soaked gauze reapplied. Following the second 7 min period, the gauze is removed, the aorta rinsed with 0.9% saline and the abdomen closed Animals are returned to general housing at the end of their surgical day. Compound Administration: Mice receive test compound (Example 2) by oral gavage at a dose volume of 10 mL/kg of body weight, and rats receive test compound (Example 2) by oral gavage at a dose volume of 2.5 mL/kg of body weight. Compound administration is BID (a.m. and p.m.) with the first dose given one day prior to surgery (p.m.) and the second dose given the morning of surgery. […] The day after surgery, dosing continues BID for 28 days. […] Interior cross sectional lumenal perimeter measurements (mm) are collected at that point to assess efficacy and statistically analyzed with JMP® 7 software (Cary, N.C.). Statistical Analysis: Measurements of lumenal perimeter are expressed as mean values±SE. […]
# In a similar study design, the ability of the compound of Example 2 to modulate aortic aneurysm dilation following CaCl2-induced injury is evaluated in Sprague-Dawley rats.
compound,measurement,setting,value
"CCCc1c(NC(=O)CC(C)(C)C(=O)[O-])cccc1OCCCOc1cc(O)c(-c2ccc(F)cc2)cc1CC.[Na+] [Example 2, Sodium 4-[[3-[3-[2-ethyl-4-(4-fluorophenyl)-5-hydroxy-phenoxy]propoxy]-2-propyl-phenyl]amino]-2,2-dimethyl-4-oxo-butanoate]",pIC50,[1],6.71
same,pIC50,[2],5.84
same,% Reduced (±S.E.) of AAA,[3]; 3 mg/kg b.i.d. oral gavage,46% ± 7
same,% Reduced (±S.E.) of AAA,[3]; 10 mg/kg b.i.d. oral gavage,69% ± 4
same,% Reduced (±S.E.) of AAA,[3]; 30 mg/kg b.i.d. oral gavage,85% ± 5
same,% Reduced (±S.E.) of AAA,[3]; 60 mg/kg b.i.d. oral gavage,69% ± 10
